Experimental data published in publication PMC11791039, “A split intein and split luciferase-coupled system for detecting protein-protein interactions” (Molecular Systems Biology, 2024).
Several values for one entry are separate records, joined by “and”; a condition that tells them apart may be missing. Identical values can stand only once. Values belong to the compound of their own block, whether it stands above or below them.

How the values were obtained:
Assay type in all cases: cell-based
[1] = biological target: T1, HRAS/RBD (Homo sapiens, UniProt P01112); experiment: SIMPL2 assay HRAS/RBD; conditions: 16 h; for normalized SIMPL2 signal HRAS/RBD (Fig. 3A source data): replicates 1-3
T1 construct: IC-β9 (GP41-1 split intein C fragment + tNLuc β9 peptide) (N); FLAG; expressed in transfected cells

[2] = biological target: T2, EGFR(WT)/SHC1 (Homo sapiens, UniProt P00533); experiment: SIMPL2 assay EGFR(WT)/SHC1; conditions: for normalized SIMPL2 signal EGFR/SHC1 (Fig. 3A source data): 16 h, replicates 1-3
T2 construct: β10-IN (tNLuc β10 peptide + GP41-1 split intein N fragment) (C); V5; expressed in transfected cells

[3] = biological target: T3, MDM2/MDM4 interaction (Homo sapiens, UniProt O15151+Q00987); experiment: SIMPL2 assay MDM2/MDM4; conditions: for SIMPL2 signal, MDM2/MDM4 (Fig. 4A): replicates 1-4
T3 construct: β10-IN (tNLuc β10 peptide + GP41-1 split intein N fragment) (C); V5; IC-β9 (GP41-1 split intein C fragment + tNLuc β9 peptide) (N); FLAG; expressed in transfected cells
Method: We next tested the system with molecular glues, which are small molecule compounds that induce target protein interaction. […] To clarify, the two protein molecules are anchored together through a pair of dimerized RO-5963 molecules. […] Therefore, its binding kinetics display a monophasic change.
Figure 4 Evaluation of SIMPL2 as a drug discovery tool using molecular glue and PROTACs. […] Samples were measured and normalized as described in Materials and Methods. […] The cells were then subjected to SIMPL2 luciferase measurement, and the raw values are plotted.
Stable cells of target protein pair were created using Cas9 CRISPR. To characterize PPI modulators, the cells were seeded in 384 well plate (10,000 cells/well) and incubated for 5 h. […] Average signal of wells without either deoxycycline or compound treatment was used as blank or ‘floor’ signal (SF). The average signal of wells with deoxycycline treatment but without compound treatment was used as maximal interaction or ‘ceiling’ (SC). SIMPL2 reading of each sample (Ssample) was normalized according to the formula S^*sample = (Ssample– SF)/(SC– SF) x 100%, in which S^*sample stands for normalized signal. The normalized data of inhibitor experiments were fitted into a four-parameter inhibitor-response model.

[4] = biological target: T4, KRAS(G12C)/RBD (Homo sapiens, UniProt P01116, G12C); experiment: SIMPL2 assay KRAS(G12C)/RBD; conditions: for SIMPL2 signal, KRAS(G12C)/RBD (Fig. 4A): replicates 1-4
T4 construct: IC-β9 (GP41-1 split intein C fragment + tNLuc β9 peptide) (N); FLAG; expressed in transfected cells

T3 sequence (Q00987 whole entry, the tested form may be a part): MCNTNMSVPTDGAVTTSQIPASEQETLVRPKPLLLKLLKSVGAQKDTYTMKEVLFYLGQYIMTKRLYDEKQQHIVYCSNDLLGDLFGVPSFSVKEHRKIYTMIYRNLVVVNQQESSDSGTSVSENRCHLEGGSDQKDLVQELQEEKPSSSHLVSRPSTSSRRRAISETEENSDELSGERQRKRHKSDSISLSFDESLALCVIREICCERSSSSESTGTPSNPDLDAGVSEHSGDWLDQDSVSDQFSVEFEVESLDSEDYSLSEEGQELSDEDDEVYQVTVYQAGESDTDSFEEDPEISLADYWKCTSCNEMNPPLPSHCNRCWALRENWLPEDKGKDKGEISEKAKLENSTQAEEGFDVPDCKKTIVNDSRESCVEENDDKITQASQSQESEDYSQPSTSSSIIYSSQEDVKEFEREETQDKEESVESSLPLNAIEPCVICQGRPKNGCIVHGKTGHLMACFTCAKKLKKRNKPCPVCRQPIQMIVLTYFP
T3 sequence (O15151 whole entry, the tested form may be a part): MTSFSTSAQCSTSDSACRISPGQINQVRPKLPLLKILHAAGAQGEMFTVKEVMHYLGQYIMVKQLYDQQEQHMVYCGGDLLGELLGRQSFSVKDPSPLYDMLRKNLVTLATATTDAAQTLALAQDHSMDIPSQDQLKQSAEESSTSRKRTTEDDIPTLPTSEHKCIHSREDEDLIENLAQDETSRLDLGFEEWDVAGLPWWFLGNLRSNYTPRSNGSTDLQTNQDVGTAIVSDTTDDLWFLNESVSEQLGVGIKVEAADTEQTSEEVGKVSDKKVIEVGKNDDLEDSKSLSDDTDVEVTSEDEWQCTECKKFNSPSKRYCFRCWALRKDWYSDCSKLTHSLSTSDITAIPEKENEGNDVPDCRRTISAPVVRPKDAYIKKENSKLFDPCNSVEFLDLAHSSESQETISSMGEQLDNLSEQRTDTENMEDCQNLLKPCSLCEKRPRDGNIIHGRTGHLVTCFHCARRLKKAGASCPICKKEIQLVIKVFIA
T2 sequence (P00533 25-1210): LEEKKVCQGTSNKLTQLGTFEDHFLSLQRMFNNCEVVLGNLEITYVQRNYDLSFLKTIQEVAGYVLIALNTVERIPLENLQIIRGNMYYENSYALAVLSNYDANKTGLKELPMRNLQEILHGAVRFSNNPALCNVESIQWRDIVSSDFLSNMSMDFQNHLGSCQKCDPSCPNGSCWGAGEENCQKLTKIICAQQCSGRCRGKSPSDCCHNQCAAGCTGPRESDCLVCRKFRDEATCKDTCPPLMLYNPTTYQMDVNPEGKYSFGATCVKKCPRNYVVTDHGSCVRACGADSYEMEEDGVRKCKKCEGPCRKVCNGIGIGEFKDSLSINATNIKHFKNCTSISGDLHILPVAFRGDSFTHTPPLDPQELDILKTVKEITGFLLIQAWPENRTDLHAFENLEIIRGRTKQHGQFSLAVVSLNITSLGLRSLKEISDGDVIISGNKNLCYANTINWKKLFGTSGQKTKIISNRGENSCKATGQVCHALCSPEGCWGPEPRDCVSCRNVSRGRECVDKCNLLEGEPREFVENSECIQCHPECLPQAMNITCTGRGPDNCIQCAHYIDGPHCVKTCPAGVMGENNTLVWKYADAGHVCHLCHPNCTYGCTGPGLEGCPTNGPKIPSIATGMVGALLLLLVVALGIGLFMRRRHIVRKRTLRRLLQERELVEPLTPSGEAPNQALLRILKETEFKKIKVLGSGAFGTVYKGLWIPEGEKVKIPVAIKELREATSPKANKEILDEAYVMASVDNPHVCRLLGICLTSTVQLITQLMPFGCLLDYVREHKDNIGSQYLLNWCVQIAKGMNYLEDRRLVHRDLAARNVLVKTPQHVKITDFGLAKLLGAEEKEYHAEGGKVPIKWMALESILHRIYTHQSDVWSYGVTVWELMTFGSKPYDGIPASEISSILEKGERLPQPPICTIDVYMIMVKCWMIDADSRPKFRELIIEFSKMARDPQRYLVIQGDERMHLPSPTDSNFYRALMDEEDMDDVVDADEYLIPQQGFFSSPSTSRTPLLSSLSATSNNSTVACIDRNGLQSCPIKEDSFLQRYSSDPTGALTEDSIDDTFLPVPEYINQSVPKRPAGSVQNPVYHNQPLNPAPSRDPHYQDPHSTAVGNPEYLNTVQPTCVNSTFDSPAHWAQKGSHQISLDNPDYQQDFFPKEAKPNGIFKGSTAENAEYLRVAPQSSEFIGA
T1 sequence (P01112 whole entry, the tested form may be a part): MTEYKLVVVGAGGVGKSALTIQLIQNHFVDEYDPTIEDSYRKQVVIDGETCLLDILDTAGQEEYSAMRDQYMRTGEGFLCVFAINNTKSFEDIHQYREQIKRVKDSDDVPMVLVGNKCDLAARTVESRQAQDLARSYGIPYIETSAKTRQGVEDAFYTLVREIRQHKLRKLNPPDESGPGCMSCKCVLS

- normalized SIMPL2 signal HRAS/RBD (Fig. 3A source data) ([1]; AMG510 0.013717 uM): 95.6644% and 96.1454% and 108.19%
- normalized SIMPL2 signal HRAS/RBD (Fig. 3A source data) ([1]; AMG510 0.041152 uM): 82.7154% and 124.68% and 97.6847%
- normalized SIMPL2 signal HRAS/RBD (Fig. 3A source data) ([1]; AMG510 0.37037 uM): 80.291% and 76.1158% and 82.6769%
- normalized SIMPL2 signal HRAS/RBD (Fig. 3A source data) ([1]; AMG510 1.11111 uM): 79.0981% and 97.1459% and 96.2801%
- normalized SIMPL2 signal HRAS/RBD (Fig. 3A source data) ([1]; AMG510 3.33333 uM): 91.6238% and 112.808% and 96.8766%
- normalized SIMPL2 signal HRAS/RBD (Fig. 3A source data) ([1]; AMG510 10 uM): 106.247% and 100.629% and 127.854%
- inhibition of HRAS/RBD interaction signal ([1]; control cells): no significant inhibition
- normalized SIMPL2 signal EGFR/SHC1 (Fig. 3A source data) ([2]; AMG510 0.013717 uM): 102.175% and 103.017% and 94.8079%
- normalized SIMPL2 signal EGFR/SHC1 (Fig. 3A source data) ([2]; AMG510 0.041152 uM): 78.9251% and 82.2027% and 70.7463%
- normalized SIMPL2 signal EGFR/SHC1 (Fig. 3A source data) ([2]; AMG510 0.37037 uM): 78.0061% and 80.6558% and 79.5224%
- normalized SIMPL2 signal EGFR/SHC1 (Fig. 3A source data) ([2]; AMG510 1.11111 uM): 94.2258% and 88.5129% and 91.668%
- normalized SIMPL2 signal EGFR/SHC1 (Fig. 3A source data) ([2]; AMG510 3.33333 uM): 78.7566% and 76.4592% and 70.5625%
- normalized SIMPL2 signal EGFR/SHC1 (Fig. 3A source data) ([2]; AMG510 10 uM): 53.0256% and 58.9069% and 63.3333%
- inhibition of EGFR/SHC1 signal at high sotorasib concentrations (reviewer's reading of Fig. 3A) ([2]; peer review file, authors confirm for EGFR/SHC1 only): 40-50%
Compound: C=CC(=O)N1CCN(c2nc(=O)n(-c3c(C)ccnc3C(C)C)c3nc(-c4c(O)cccc4F)c(F)cc23)[C@@H](C)C1 [sotorasib, Sotorasib]

Compound: RO-5963
- concentration above which MDM2/MDM4 interaction declines (hook effect) ([3]; 16 h with doxycycline): above 3 μM
- concentration above which MDM2/MDM4 interaction was observed ([3]; 16 h with doxycycline): above 0.3 μM
- concentration of peak MDM2/MDM4 interaction ([3]; 16 h with doxycycline): 3 µM
- SIMPL2 signal, MDM2/MDM4 (Fig. 4A) ([3]; RO-5963 0.013717 uM): 98.5373 and 90.6113 and 85.0033 and 102.575
- SIMPL2 signal, MDM2/MDM4 (Fig. 4A) ([3]; RO-5963 0.041152 uM): 93.004 and 86.0501 and 89.041 and 96.2193
- SIMPL2 signal, MDM2/MDM4 (Fig. 4A) ([3]; RO-5963 0.37037 uM): 155.514 and 142.28 and 150.579 and 141.083
- SIMPL2 signal, MDM2/MDM4 (Fig. 4A) ([3]; RO-5963 1.11111 uM): 502.238 and 458.421 and 548.523 and 430.606
- SIMPL2 signal, MDM2/MDM4 (Fig. 4A) ([3]; RO-5963 3.33333 uM): 934.354 and 877.9 and 842.009 and 825.259
- SIMPL2 signal, MDM2/MDM4 (Fig. 4A) ([3]; RO-5963 10 uM): 374.451 and 365.777 and 368.394 and 378.937
- SIMPL2 signal, KRAS(G12C)/RBD (Fig. 4A) ([4]; RO-5963 0.013717 uM): 109.968 and 129.491
- SIMPL2 signal, KRAS(G12C)/RBD (Fig. 4A) ([4]; RO-5963 0.041152 uM): 115.427 and 110.7 and 113.906 and 96.9775
- SIMPL2 signal, KRAS(G12C)/RBD (Fig. 4A) ([4]; RO-5963 0.37037 uM): 127.273 and 113.795 and 114.951
- SIMPL2 signal, KRAS(G12C)/RBD (Fig. 4A) ([4]; RO-5963 1.11111 uM): 136.524 and 105.719 and 127.623 and 137.333
- SIMPL2 signal, KRAS(G12C)/RBD (Fig. 4A) ([4]; RO-5963 3.33333 uM): 110.236 and 106.312 and 130.946
- SIMPL2 signal, KRAS(G12C)/RBD (Fig. 4A) ([4]; RO-5963 10 uM): 136.758 and 112.554 and 138.094 and 146.423
- effect on KRAS(G12C)/RBD control interaction signal ([4]; doxycycline + compound 16 h, tested concentration range): not affected
